Data on six compounds can be found in ChEMBL document CHEMBL1132957, “Design of potent dicyclic (4-10/5-8) gonadotropin releasing hormone (GnRH) antagonists” (J Med Chem, 2000).

Assay [1] relates to Rattus norvegicus. The assay can be described thus: Evaluated for the ovulation effects in the rat by administering the drug at the doses (50 ug); 0/7. It is filed as functional, organism-based.
Assay [2] has as its system Rattus norvegicus. The assay can be described thus: Evaluated for the ovulation effects in the rat by administering the drug at the doses (25 ug); 4/5. It is filed as functional, organism-based.
The subject of assay [3] is Rattus norvegicus. The assay can be described thus: Evaluated for the ovulation effects in the rat by administering the drug at the doses (500 ug); 3/8. It counts as functional, organism-based.
Assay [4] has as its target T1, Gonadotropin-releasing hormone receptor (Rattus norvegicus, UniProt P30969).
T1 sequence (P30969 whole entry): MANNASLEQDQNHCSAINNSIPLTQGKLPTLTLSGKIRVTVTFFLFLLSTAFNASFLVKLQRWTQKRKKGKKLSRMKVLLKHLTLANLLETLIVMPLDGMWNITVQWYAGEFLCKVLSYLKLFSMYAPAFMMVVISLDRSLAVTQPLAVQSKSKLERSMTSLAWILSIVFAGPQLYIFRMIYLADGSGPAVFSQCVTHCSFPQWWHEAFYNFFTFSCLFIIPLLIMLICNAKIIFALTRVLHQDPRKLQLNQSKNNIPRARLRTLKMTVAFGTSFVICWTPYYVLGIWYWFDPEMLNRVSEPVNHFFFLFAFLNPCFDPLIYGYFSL
The assay can be described thus: Competitive radioligand binding assay, in human HEK293 cells stably transfected with the rat Gonadotropin-releasing hormone receptor. It is filed as cell-based.

Assay [5] concerns Rattus norvegicus. Description: Evaluated for the ovulation effects in the rat by administering the drug at the doses (100 ug); 5/5. It is filed as functional, organism-based.
The test system of assay [6] is Rattus norvegicus. Description: Evaluated for the ovulation effects in the rat by administering the drug at the doses (10 ug); 5/5. It is filed as functional, organism-based.
Assay [7] relates to Rattus norvegicus. The assay can be described thus: Evaluated for the ovulation effects in the rat by administering the drug at the doses (25 ug); 0/8. It counts as functional, organism-based.
Assay [8] relates to Rattus norvegicus. The assay can be described thus: Evaluated for the ovulation effects in the rat by administering the drug at the doses (10 ug); 1/6. It counts as functional, organism-based.
Assay [9] deals with Rattus norvegicus. The assay can be described thus: Evaluated for the ovulation effects in the rat by administering the drug at the doses (2.5 ug); 14/16. It counts as functional, organism-based.
Assay [10] relates to Rattus norvegicus. Description: Evaluated for the ovulation effects in the rat by administering the drug at the doses (25 ug); 0/3. It is filed as functional, organism-based.
Assay [11] relates to Rattus norvegicus. The assay can be described thus: Evaluated for the ovulation effects in the rat by administering the drug at the doses (25 ug); 0/4. It is filed as functional, organism-based.
Assay [12] deals with Rattus norvegicus. Description: Evaluated for the ovulation effects in the rat by administering the drug at the doses (25 ug); 0/5. It counts as functional, organism-based.
The test system of assay [13] is Rattus norvegicus. The assay can be described thus: Evaluated for the ovulation effects in the rat by administering the drug at the doses (10 ug); 4/6. It counts as functional, organism-based.
Assay [14] concerns Rattus norvegicus. The assay can be described thus: Evaluated for the ovulation effects in the rat by administering the drug at the doses (5 ug); 3/3. It counts as functional, organism-based.

Structures are written as SMILES. Activity calls are given as the source filed them. No cut-off for these calls is given here. Positions of bridges follow the written chain, without caps; N, C: chain ends. Non-standard residues stand in square brackets, D forms with d. Residues, ends and D or L forms follow the SMILES beside them. dPhe(4-Cl) = N[C@H](Cc1ccc(Cl)cc1)C(=O)O; d2Nal = N[C@H](Cc1ccc2ccccc2c1)C(=O)O; d3Pal = N[C@H](Cc1cccnc1)C(=O)O; Dab = NCC[C@H](N)C(=O)O; Dap = NC[C@H](N)C(=O)O

With `CC[C@H](NC(C)=O)C(=O)N[C@@H](Cc1ccc(Cl)cc1)C(=O)N[C@@H](Cc1c[nH]c2ccccc12)C(=O)N[C@@H](CC(=O)O)C(=O)N[C@@H]1CCC(=O)NCCCC[C@@H](C(=O)N2CCC[C@@H]2C(=O)N[C@@H](C)C(N)=O)NC(=O)[C@H](CC(C)C)NC(=O)[C@@H](CCCN=C(N)N)NC1=O` (stereo in doubt; 13), in the assay with Rattus norvegicus [1], the result was Active. The Activity result with Rattus norvegicus [2] was “Weak activity”.
The term Ki denotes the equilibrium dissociation constant of an inhibitor or competing ligand from its target. High values mean weaker binding, low ones tighter binding. For the compound `CC(=O)N[C@H](Cc1ccc2ccccc2c1)C(=O)N[C@H](Cc1ccc(Cl)cc1)C(=O)N[C@H](Cc1cccnc1)C(=O)N[C@H]1CC(=O)NC[C@@H](C(N)=O)NC(=O)[C@@H]2CCCN2C(=O)[C@@H]2CCNC(=O)[C@@H](Cc3ccccc3)NC(=O)CC[C@H](NC1=O)C(=O)N[C@H](CCCN=C(N)N)C(=O)N[C@@H](CC(C)C)C(=O)N2`, the Activity result in the assay with Rattus norvegicus [3] was “Weak activity”. In assay [4], this compound showed a Ki of 120 nM. Moreover, the result in the assay with Rattus norvegicus [5] was inactive.
Turning to `CC(=O)N[C@H](Cc1ccc2ccccc2c1)C(=O)N[C@H](Cc1ccc(Cl)cc1)C(=O)N[C@H](Cc1cccnc1)C(=O)N[C@H]1CC(=O)NC[C@@H](C(N)=O)NC(=O)[C@@H]2CCCN2C(=O)[C@@H]2CCCNC(=O)[C@H](Cc3ccccc3)NC(=O)CC[C@H](NC1=O)C(=O)N[C@H](CCCN=C(N)N)C(=O)N[C@@H](CC(C)C)C(=O)N2`, the inhibition constant (Ki) in [4] was determined as 0.27 nM. In addition, in the assay on Rattus norvegicus [6], the result was inactive. The outcome in the assay with Rattus norvegicus [7] was Active.
Take `CC(=O)N[C@H](Cc1ccc2ccccc2c1)C(=O)N[C@H](Cc1ccc(Cl)cc1)C(=O)N[C@H](Cc1cccnc1)C(=O)N[C@H]1CC(=O)NC[C@@H](C(N)=O)NC(=O)[C@@H]2CCCN2C(=O)[C@@H]2CCNC(=O)CNC(=O)CC[C@H](NC1=O)C(=O)N[C@H](CCCN=C(N)N)C(=O)N[C@@H](CC(C)C)C(=O)N2` (Ac-[d2Nal][dPhe(4-Cl)][d3Pal]DE[dR]L[Dab]P[Dap]-NH2; lactam 4-10; linker 5-8 via G): the Activity result with Rattus norvegicus [8] and in the assay on Rattus norvegicus [9] was “Weak activity” each time. Further, in [4], the Ki is 0.16 nM. For the same compound, in the assay with Rattus norvegicus [10], the outcome was Active.
Turning to `CC(=O)N[C@H](Cc1ccc2ccccc2c1)C(=O)N[C@H](Cc1ccc(Cl)cc1)C(=O)N[C@H](Cc1cccnc1)C(=O)N[C@H]1CC(=O)NC[C@@H](C(N)=O)NC(=O)[C@@H]2CCCN2C(=O)[C@@H]2CCNC(=O)[C@H](Cc3ccccc3)NC(=O)CC[C@H](NC1=O)C(=O)N[C@H](CCCNC(N)=O)C(=O)N[C@@H](CC(C)C)C(=O)N2`, in the assay on Rattus norvegicus [11], the outcome was Active. The compound also displayed an inhibitory constant (Ki) in assay [4] of 0.2 nM. For the same compound, in the assay with Rattus norvegicus [6], the result was inactive.
For `CC(=O)N[C@H](Cc1ccc2ccccc2c1)C(=O)N[C@H](Cc1ccc(Cl)cc1)C(=O)N[C@H](Cc1cccnc1)C(=O)N[C@H]1CC(=O)NC[C@@H](C(N)=O)NC(=O)[C@@H]2CCCN2C(=O)[C@@H]2CCNC(=O)CNC(=O)C[C@H](NC1=O)C(=O)N[C@H](CCCN=C(N)N)C(=O)N[C@@H](CC(C)C)C(=O)N2`, the outcome with Rattus norvegicus [12] was Active. Also, the Activity entry with Rattus norvegicus [13] was “Weak activity”. In addition, the result with Rattus norvegicus [14] was inactive. Further, in assay [4], the Ki is 0.35 nM.
